Assay results reported in patent US20180282331A1, “7-Oxo -6-(sulfooxy)- 1,6-diazabicyclo [3.2.1] octane containing compounds and their use in treatment of bacterial infections (changed by PCT to: 7-OXO -6-(SULFOOXY)- 1,6-DIAZABICYCLO [3.2.1] OCTANE CONTAINING COMPOUNDS AND THEIR USE IN TREATMENT OF BACTERIAL INFECTIONS” (WOCKHARDT LIMITED, priority 2015, published 2018).

Legend:
Assay type in all cases: cell-based
E. coli 7 MP [1] = test: MIC of Ceftazidime in combination with compound (4 mcg/ml), agar dilution; details: Escherichia coli, Ceftazidime alone or with constant 4 mcg/ml of compound
Description: (§1) The biological activity of representative compounds according to the invention against various bacterial strains was investigated. The Minimum Inhibitory Concentration (MIC) determination for the combinations was carried out in Muller Hinton Agar (MHA) (BD, USA) according to Clinical and Laboratory Standards Institute (CLSI) recommendations, (Clinical and Laboratory Standards Institute (CLSI), Performance Standards for Antimicrobial Susceptibility Testing, 20th Informational Supplement, M 100-S20, Volume 30, No. 1, 2010). In short, the test strains were adjusted to deliver about 10^4 CFU per spot with a multipoint inoculator (Applied Quality Services, UK). The plates were poured with MHA containing doubling concentration range of representative compounds according to present invention. The plates were inoculated and were incubated at 35° C. for 18 hours. […] The Table 5 depicts the antibacterial activity profile of compounds according to present invention against various multidrug resistant bacterial strains.
(§2) The combinations of compounds according to present invention were also tested for their antibacterial activity in combination with Ceftazidime. The plates were poured with MHA containing doubling concentration range of Ceftazidime in combination with constant concentration (4 mcg/ml) of representative compounds of Formula (I).

E. coli M 50 [2] = test: as above; details: Escherichia coli, M50, Ceftazidime alone or with constant 4 mcg/ml of compound
Description: as §1, §2

E. coli NCTC 13352 [3] = test: as above; details: Escherichia coli, NCTC13352, Ceftazidime alone or with constant 4 mcg/ml of compound
Description: as §1, §2

E. coli NCTC 13353 [4] = test: as above; details: Escherichia coli, NCTC13353, Ceftazidime alone or with constant 4 mcg/ml of compound
Description: as §1, §2

[5] = tested on: K. pneumoniae ATCC 700603; test: as above; details: Klebsiella pneumoniae, ATCC700603, Ceftazidime alone or with constant 4 mcg/ml of compound
Description: as §1, §2

K. pneumoniae H521 [6] = test: as above; details: Klebsiella pneumoniae, Ceftazidime alone or with constant 4 mcg/ml of compound
Description: as §1, §2

K. pneumoniae H525 [7] = test: as above; details: Klebsiella pneumoniae, Ceftazidime alone or with constant 4 mcg/ml of compound
Description: as §1, §2

E. coli 7 MP [8] = test: MIC, agar dilution (MHA), compound alone
Description: as §1

E. coli M 50 [9] = test: MIC, agar dilution (MHA), compound alone
Description: as §1

E. coli NCTC 13352 [10] = test: MIC, agar dilution (MHA), compound alone
Description: as §1

E. coli NCTC 13353 [11] = test: MIC, agar dilution (MHA), compound alone
Description: as §1

[12] = tested on: K. pneumoniae ATCC 700603; test: MIC, agar dilution (MHA), compound alone
Description: as §1

K. pneumoniae H521 [13] = test: MIC, agar dilution (MHA), compound alone
Description: as §1

K. pneumoniae H525 [14] = test: MIC, agar dilution (MHA), compound alone
Description: as §1

[15] = Escherichia coli, E. coli 7 MP, compound alone, MHA, 35° C., 18 hours, read-out: MIC
[16] = Escherichia coli, M50, E. coli M 50, compound alone, MHA, 35° C., 18 hours, read-out: MIC
[17] = Escherichia coli, NCTC13352, E. coli NCTC 13352, compound alone, MHA, 35° C., 18 hours, read-out: MIC
[18] = Escherichia coli, NCTC13353, E. coli NCTC 13353, compound alone, MHA, 35° C., 18 hours, read-out: MIC
[19] = Klebsiella pneumoniae, ATCC700603, K. pneumoniae ATCC 700603, compound alone, MHA, 35° C., 18 hours, read-out: MIC
[20] = Klebsiella pneumoniae, K. pneumoniae H521, compound alone, MHA, 35° C., 18 hours, read-out: MIC
[21] = Klebsiella pneumoniae, K. pneumoniae H525, compound alone, MHA, 35° C., 18 hours, read-out: MIC

Row | SMILES | MIC (E. coli 7 MP [8]; [15]) | MIC (E. coli M 50 [9]; [16]) | MIC (E. coli NCTC 13352 [10]; [17]) | MIC (E. coli NCTC 13353 [11]; [18]) | MIC [12, 19] | MIC (K. pneumoniae H521 [13]; [20]) | MIC (K. pneumoniae H525 [14]; [21]) | also measured
1 | CC(C)(O/N=C(\C(=O)N[C@@H]1C(=O)N2C(C(=O)[O-])=C(C[n+]3ccccc3)CS[C@H]12)c1csc(N)n1)C(=O)O [Ceftazidime] | – | – | – | – | – | – | – | MIC (E. coli 7 MP [1]): > 32 µg/mL; MIC (E. coli M 50 [2]): > 32 µg/mL; MIC (E. coli NCTC 13352 [3]): 16 µg/mL; MIC (E. coli NCTC 13353 [4]): > 32 µg/mL; MIC [5]: 16 µg/mL; MIC (K. pneumoniae H521 [6]): > 32 µg/mL; MIC (K. pneumoniae H525 [7]): > 32 µg/mL
2 | NCCCc1nnnn1CC(=O)NNC(=O)[C@@H]1CC[C@@H]2CN1C(=O)N2OS(=O)(=O)O [Example 31] | 1 µg/mL | 0.5 µg/mL | 0.5 µg/mL | 0.5 µg/mL | > 32 µg/mL | 1 µg/mL | 1 µg/mL | –
3 | NCCCCc1nnn(CC(=O)NNC(=O)[C@@H]2CC[C@@H]3CN2C(=O)N3OS(=O)(=O)O)n1 [Example 32] | 1 µg/mL | 0.5 µg/mL | 0.5 µg/mL | 0.25 µg/mL | > 32 µg/mL | 0.5 µg/mL | 0.5 µg/mL | –
4 | NCCCCc1nnnn1CC(=O)NNC(=O)[C@@H]1CC[C@@H]2CN1C(=O)N2OS(=O)(=O)O [Example 33] | 1 µg/mL | 0.5 µg/mL | 1 µg/mL | 0.5 µg/mL | > 32 µg/mL | 4 µg/mL | 0.5 µg/mL | –
5 | O=C(Cn1ccnc1COC(=O)[C@@H]1CCCN1)NNC(=O)[C@@H]1CC[C@@H]2CN1C(=O)N2OS(=O)(=O)O [Example 34] | 4 µg/mL | 1 µg/mL | 1 µg/mL | 1 µg/mL | > 32 µg/mL | 2 µg/mL | 1 µg/mL | –
6 | C[C@H](N)C(=O)OCc1nccn1CC(=O)NNC(=O)[C@@H]1CC[C@@H]2CN1C(=O)N2OS(=O)(=O)O [Example 35] | 4 µg/mL | 1 µg/mL | 1 µg/mL | 1 µg/mL | > 32 µg/mL | 2 µg/mL | 2 µg/mL | –
7 | Nc1ccn(CC(=O)NNC(=O)[C@@H]2CC[C@@H]3CN2C(=O)N3OS(=O)(=O)[O-])c(=O)n1.[Na+] [Example 37] | – | – | – | – | – | – | – | MIC (E. coli 7 MP [8]; Escherichia coli, 7MP, 18 h): 4 µg/mL; MIC (E. coli M 50 [9]; Escherichia coli, M50, 18 h): 1 µg/mL; MIC (E. coli NCTC 13352 [10]; Escherichia coli, NCTC13352, 18 h): 2 µg/mL; MIC (E. coli NCTC 13353 [11]; Escherichia coli, NCTC13353, 18 h): 1 µg/mL; MIC ([12]; Klebsiella pneumoniae, ATCC700603, 18 h): > 32 µg/mL; MIC (K. pneumoniae H521 [13]; Klebsiella pneumoniae, H521, 18 h): 4 µg/mL; MIC (K. pneumoniae H525 [14]; Klebsiella pneumoniae, H525, 18 h): 4 µg/mL
8 | O=C(Cn1nnnc1CCO)NNC(=O)[C@@H]1CC[C@@H]2CN1C(=O)N2OS(=O)(=O)O.[Na] [Example 38, Sodium salt of (2S,5R)-N′-{[5-(2-hydroxyethyl)-1H-tetrazol-1-yl]acetyl}-7-oxo-6-(sulfooxy)-1,6-diazabicyclo[3.2.1]octane-2-carbohydrazide] | – | – | – | – | – | – | – | MIC (E. coli 7 MP [8]; E. coli 7 MP, compound alone, MHA, 35° C., 18 hours): 1 µg/mL; MIC (E. coli M 50 [9]; E. coli M 50, compound alone, MHA, 35° C., 18 hours): 0.25 µg/mL; MIC (E. coli NCTC 13352 [10]; E. coli NCTC 13352, compound alone, MHA, 35° C., 18 hours): 0.25 µg/mL; MIC (E. coli NCTC 13353 [11]; E. coli NCTC 13353, compound alone, MHA, 35° C., 18 hours): 0.25 µg/mL; MIC ([12]; K. pneumoniae ATCC 700603, compound alone, MHA, 35° C., 18 hours): >32 µg/mL; MIC (K. pneumoniae H521 [13]; K. pneumoniae H521, compound alone, MHA, 35° C., 18 hours): 0.5 µg/mL; MIC (K. pneumoniae H525 [14]; K. pneumoniae H525, compound alone, MHA, 35° C., 18 hours): 0.5 µg/mL
9 | O=C(Cn1nnc(CCO)n1)NNC(=O)[C@@H]1CC[C@@H]2CN1C(=O)N2OS(=O)(=O)[O-].[Na+] [Example 39] | 1 µg/mL | 0.5 µg/mL | 0.5 µg/mL | 0.5 µg/mL | > 32 µg/mL | 1 µg/mL | 2 µg/mL | –
10 | O=C(Cn1ccnc1CCO)NNC(=O)[C@@H]1CC[C@@H]2CN1C(=O)N2OS(=O)(=O)[O-].[Na+] [Example 40] | 4 µg/mL | 2 µg/mL | 2 µg/mL | 1 µg/mL | > 32 µg/mL | 4 µg/mL | 2 µg/mL | –
